PubChem BioAssay AID179 (DTP/NCI, 2004)
Calls of active or inactive are those of the source.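 How the source made its calls: active means compounds giving half or more protection of infected cells from virus-caused growth loss, again on retest; inactive means the rest.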 *1 amine or outer side, *2 acyl side, *3 side chain or, on linkers, in order; H or OH if unused. Where a SMILES comes first, the peptide text is derived from it. Bridges are numbered along the chain shown (N, C = ends). [ ]: non-standard residue; d: D form. The star is where a group is joined. ξ: configuration not given here. γ4hArg(2R,3R-(OH)2) = N=C(N)NCCC[C@H](N[*:1])[C@@H](O)[C@@H](O)C(=O)[*:2]; Gln(3S,4R-Me2) = C[C@H]([C@H](N)C(=O)O)[C@@H](C)C(N)=O; X5 = CC(C)C[C@H](C)[C@@H](O)[C@@H](C)C(=O)*; X6 = COC(c1ccc(O)cc1)C(N[*:1])C(=O)[*:2]; NMeQ = CN[C@@H](CCC(N)=O)C(=O)O; Thr(3ξ) = CC(O)[C@H](N)C(=O)O; NMeA = CN[C@@H](C)C(=O)O; Cbz = O=C(OCc1ccccc1)*; Boc = CC(C)(C)OC(=O)*; Aib = CC(C)(N)C(=O)O; ξV = CC(C)C(N)C(=O)O; OBn = c1ccc(CO*)cc1; OtBu = CC(C)(C)O*; βAla = NCCC(=O)O

System: CEM cells HIV-1 protection, formazan growth assay
Test: NCI AIDS Antiviral Assay
Conditions: for IC50: measured here: growth of uninfected CEM cells
How it was run: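 Five concentrations of each compound were applied to infected and uninfected human CEM cells. Protection from HIV-1 was judged from growth measured with a soluble formazan assay.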

SMILES | outcome | EC50 | IC50
Cc1cc(C)c(-c2noc(-c3ccccc3)c2C2=NCCN2)c(C)c1 | inactive | – | –
O=C1c2cc(Cl)ccc2-n2cnnc2C2CSCN12 (stereo not given) | – | > 200 µM | > 200 µM
CCOC(=O)C(Cc1cn(S(=O)(=O)c2ccc(C)cc2)cn1)P(=O)(OCC)OCC (stereo not given) | – | > 200 µM | > 200 µM
C=C(C)[C@@]1(OC(=O)c2cc([N+](=O)[O-])cc([N+](=O)[O-])c2)C[C@@H]2CCCC[C@@H]21 | inactive | – | –
CC(C)(C)OC(=O)CC(NC(=O)OC(C)(C)C)C(=O)NC(CCCCNC(=O)OCc1ccccc1)C(=O)NC(C)(C)C(=O)NCCC(=O)OCc1ccccc1 (stereo not given) (Boc-D(OtBu)K(Cbz)[Aib][βAla]-OBn; configuration not given here) | – | > 100 µM | > 100 µM
COP(=O)(OC)C(Cc1c[nH]c2ccccc12)NC(=O)OCc1ccccc1 (stereo not given) | – | > 200 µM | > 200 µM
C=C(C)CS(=O)(=O)O | – | > 200 µM | > 200 µM
CNC(=S)N/N=C(\C)c1ccc(OC)cc1O | – | > 200 µM | 13.8 µM
CCC(NC(=O)c1ccccc1SC(=O)CCCC[n+]1ccccc1)C(N)=O (stereo not given) | – | > 3.8 µM | –
C=C1N(C=O)C(C)(C)N(O)C1(C)C | – | > 200 µM | > 200 µM
CC1(C)CC(=O)C2C(C1)Nc1ccccc1NC2c1ccccc1[N+](=O)[O-] (stereo not given) | – | > 61.7 µM | > 61.7 µM
CCOC(=O)C(=O)NNc1cc(=O)n(C)c(=O)n1C | – | > 200 µM | > 200 µM
O=C1C[C@H](c2ccccc2)C2(C(=O)c3ccccc3C2=O)[C@@H](c2ccccc2)C1 | – | 51.3 µM | 102 µM
CCCCCSCCCCCCCC(=O)OCC1OC(n2cc(C)c(=O)[nH]c2=O)CC1N=[N+]=[N-] (stereo not given) | active | – | 91.2 µM
Cc1ccc(-c2c(C#N)c(-c3ccccc3)n(NS(=O)(=O)c3ccccc3)c(=O)c2C#N)cc1 | – | > 200 µM | 28.8 µM
Cc1noc2c1CC(=O)c1ccccc1OC2 | – | > 389 µM | 224 µM
COC[C@]12CN(C=O)[C@H]3C4[C@H](OC)[C@H]1C3([C@@H](OC)C[C@H]2O)[C@@H]1C[C@@]2(O)[C@H](OC(=O)c3ccccc3)[C@@H]1[C@]4(OC(C)=O)[C@@H](O)[C@@H]2OC | – | > 200 µM | > 200 µM
O=C(/C=C/c1ccccc1)CCC1C(=O)c2ccccc2C1=O | – | > 23.4 µM | > 23.4 µM
COc1cccc(NC(=O)CC(=O)N2N=C(C)C(N=Nc3ccc(S(=O)(=O)CCOS(=O)(=O)O)cc3)C2=O)c1 (stereo not given) | – | > 200 µM | 3.02 µM
O=C(O)C(CS)NCc1c2ccccc2[n+]([O-])c2ccccc12 (stereo not given) | inactive | – | –
COc1ccc(C2(C(OC)OC)NC(=O)N(C)C2=O)cc1 (stereo not given) | – | > 200 µM | > 200 µM
N#C/C=C/c1cccc(Br)c1 | – | > 47.9 µM | > 47.9 µM
O=C1C2C=CC(n3[nH]c(=O)n(Cc4ccccc4)c3=O)CC2C(=O)N1c1ccc(Br)cc1 (stereo not given) | – | > 501 µM | 135 µM
O=C1C=CC(=Nc2ccc3c(c2)Cc2ccccc2-3)O1 | – | > 200 µM | 32.4 µM
CCOC(=O)c1nc2ccccc2nc1Nc1cc(OC)c(OC)c(OC)c1 | – | > 200 µM | > 200 µM
Cc1cccc2c1C(=O)OC2(c1cccc2ccccc12)c1cccc2ccccc12 | inactive | – | –
CC1(C)O[C@H]2Cn3c(c(C#N)c4ccccc43)[C@H]2O1 | – | > 200 µM | 178 µM

SMILES | outcome | EC50 | IC50
COc1cc(N=Nc2cc(NC(C)=O)c(N=Nc3ccc(S(=O)(=O)O)cc3)cc2S(=O)(=O)O)c(C)cc1N=Nc1cc(OC)c(NC(=O)c2ccc(N)cc2)cc1C | – | 4.57 µM | 191 µM
O=C(NCCNCCCNC(=O)c1cc(-c2ccccc2)nc2ccccc12)c1cccc(OCc2ccccc2)c1OCc1ccccc1 | – | > 200 µM | 1.1 µM
COc1ccc(/C=C(\C#N)c2ccc([N+](=O)[O-])cc2)cc1OC | – | 102 µM | 759 µM
C=C(c1ccccc1)c1ccccc1-c1cc(-c2ccccc2)cc(-c2ccccc2)n1 | – | > 200 µM | 25.1 µM
CCOC(=O)/C(=C\c1cccs1)P(=O)(OCC)OCC | – | > 794 µM | 41.7 µM
CC(C)C(NC(=O)CNC(=O)OC(C)(C)C)C(=O)NCC(=O)OCc1ccccc1 (stereo not drawn) (Boc-Gly-[ξV]-Gly-OBn) | – | > 200 µM | > 200 µM
Nc1nc(Cl)c(N)c(NCC2(CO)CC(CCCc3ccccc3)C2)n1 (stereo not given) | – | > 0.2 µM | 0.186 µM
C=C1C(=O)[C@@]23CC1C(O)[C@@H](OC(C)=O)[C@@H]2C1(C)C(OC(C)=O)C[C@@H](OC(C)=O)C(C)(C)[C@@H]1C[C@H]3OC(C)=O (stereo not given in full) | – | > 200 µM | 0.851 µM
CC1(C)CS(=O)(=O)CC(C)(C)C(=O)C1=O | – | > 200 µM | > 200 µM
C=C(C)C(CC=C(C)C)CC12CC(CC=C(C)C)C(C)(C)C(CC=C(C)C)(C(=O)C(Cc3ccc(O)c(O)c3)=C1O)C2=O (stereo not given) | – | > 200 µM | 158 µM
CCN(CC)C(c1ccc(N(C)C)cc1)C(c1ccc(N(C)C)cc1)N(CC)CC (stereo not given) | – | > 158 µM | 42.7 µM
O=C(OCCN1CCCCC1)c1cc2ccccc2[nH]1 | – | > 200 µM | > 200 µM
COc1cc(Br)c(C=Nc2cccc3ccc(OS(=O)(=O)c4ccc([N+](=O)[O-])cc4)cc23)cc1OC | – | > 17.4 µM | > 17.4 µM
COC(=O)[C@H]1[C@H](OC(=O)[C@@H](OC)c2ccccc2)ON2CC[C@@H](OC(=O)c3ccccc3)[C@H]12 | – | > 200 µM | 178 µM
CCOC(=O)C(/C=N/C(=S)Nc1c(C)cccc1C)=C(/O)c1ccccc1 | – | > 200 µM | > 200 µM
CCOC(=O)N1C2C=C(C)C(ON2C(=O)c2ccccc2)C2C(C)C(=O)N21 (stereo not given) | – | > 355 µM | > 355 µM
CCCCCCCCCCCC(=O)C1=C(O)C(O)CCC1=O (stereo not given) | inactive | – | –
CCCCCCC(CCl)c1sc(-c2csc(CCNC(=O)OC(C)(C)C)n2)nc1C(=O)OC (stereo not given) | – | > 200 µM | > 200 µM
O=[N+]([O-])c1ccc(OP(=O)(Oc2ccc([N+](=O)[O-])cc2)OP(=O)(Oc2ccc([N+](=O)[O-])cc2)Oc2ccc([N+](=O)[O-])cc2)cc1 | – | > 200 µM | 50.1 µM
O=C(NN1C(=O)c2ccccc2C1=O)c1ccccc1Nc1ccccc1C(=O)NN1C(=O)c2ccccc2C1=O | – | > 200 µM | > 200 µM
O=c1c(Cl)c(N2CCCCC2)cnn1-c1ccccc1 | – | > 174 µM | > 174 µM
CN(/N=C/c1ccccc1C(=O)O)C1=NCCCCN1 | – | > 200 µM | > 200 µM
CC(C)C(C(=O)O)n1[se]c2ccccc2c1=O (stereo not given) | – | 15.5 µM | 120 µM
COC(=O)c1c(C)oc2ccc(OC(C)=O)cc12 | inactive | – | –
CC1(C)CCc2cc3c(cc2O1)OCCC3O (stereo not given) | inactive | – | –
O=C(NP(=O)(N1CC1)N1CC1)c1cc(I)ccc1I | – | > 200 µM | 3.98 µM
[CH3][Ga]([CH3])[n]1cccn1 | – | > 562 µM | 74.1 µM

SMILES | outcome | EC50 | IC50
COC(=O)C(=O)C(C(=O)OC)C(=O)C(=O)Nc1ccccc1C(N)=O (stereo not given) | – | > 74.1 µM | > 74.1 µM
O=C(OCCNC(=O)N1CC1)OCCNC(=O)N1CC1 | – | > 200 µM | > 200 µM
O=C1Cc2c(-c3ccccc3)cc(-c3ccc4ccccc4c3)nc2-c2ccccc2N1 | – | > 200 µM | 51.3 µM
O=C(O)C(CS(=O)(=O)O)S(=O)(=O)O (stereo not given) | inactive | – | –
O=C(O)c1nc2sc(C(=O)O)nc2s1 | inactive | – | –
Cc1ncc([N+](=O)[O-])n1CC(O)Cn1ccnc1[N+](=O)[O-] (stereo not given) | – | > 200 µM | > 200 µM
Cc1cc2c(c3oc(=O)ccc13)[C@@H](OC(=O)C13CCC(C)(C(=O)O1)C3(C)C)[C@@H](OC(=O)C13CCC(C)(C(=O)O1)C3(C)C)C(C)(C)O2 (stereo not given in full) | – | 0.38 µM | 2 µM
COC(c1ccc(O)cc1)C1NC(=O)[C@H](CCC(N)=O)N(C)C(=O)[C@H](CC(C)C)NC(=O)[C@@H](CCCN=C(N)N)NC(=O)[C@H](C(C)O)NC(=O)[C@@H](NC(=O)[C@@H](NC(=O)[C@H](O)[C@H](O)[C@H](CCCN=C(N)N)NC(=O)[C@H](C)NC(=O)[C@H](C)[C@H](O)[C@@H](C)CC(C)C)[C@@H](C)[C@@H](C)C(N)=O)[C@@H](C)OC(=O)[C@H](C)N(C)C1=O (stereo partly drawn) (X5-A[γ4hArg(2R,3R-(OH)2)][Gln(3S,4R-Me2)]T[Thr(3ξ)][dR]L[NMeQ][X6][NMeA]; ester 4-C) | – | 0.0933 µM | 0.794 µM
O=C1NC2(CCCCC2)C2CCCCC(O)C12 (stereo not given) | inactive | – | –
COc1cc2c(c(OC)c1OC)-c1ccc(SC)c(=O)cc1C(NC(=O)c1ccccc1)CC2 (stereo not given) | – | > 2 µM | 0.000708 µM
N=C(N)N1CCNc2ccccc2C1 | inactive | – | –
CCCC(=O)[O-].CCCC(=O)[O-].N.N.N.N.[Co+3].[O-][Cl+3]([O-])([O-])[O-] | inactive | – | –
N#Cc1cc2c(N)ncnc2nc1N1CCCC1 | – | > 200 µM | 191 µM
CCOC1(OCC)C([N+](=O)[O-])=CC(=[N+]([O-])O)C=C1[N+](=O)[O-] | – | > 724 µM | 204 µM
CSc1ncccc1C(=O)[O][Sn]([c]1ccccc1)([c]1ccccc1)[c]1ccccc1 | – | > 2 µM | 0.316 µM
CCOc1ccc(-n2nnc3c(N)nc(N)nc32)cc1 | – | > 200 µM | > 200 µM
COc1ccccc1N/C(=C\C(=O)C(=O)NC12CC3CC(CC(C3)C1)C2)c1ccccc1 | – | > 200 µM | > 200 µM
O=C(SSC(=O)c1ccccc1)c1ccccc1 | – | > 200 µM | 22.4 µM
O=C(c1ccccc1)[C@H]1Nc2ccc(Cl)cc2[C@H]2CCC[C@@H]12 | – | > 4.68 µM | > 4.68 µM
CN1N=C(c2ccncc2)OC1c1cccc(C(F)(F)F)c1 (stereo not given) | – | > 200 µM | 44.7 µM
CS(=O)(=O)NC1C(=O)c2ccccc2OC1c1ccccc1 (stereo not given) | – | > 200 µM | > 200 µM
O=c1ccn([C@@H]2O[C@@H]3COC(c4c(F)cccc4Cl)N(O)[C@@H]3C2O)c(=O)[nH]1 (stereo not given in full) | – | > 200 µM | > 200 µM
CCn1c(=O)c2c(=O)[nH][nH]c2c2ccccc21 | – | > 200 µM | > 200 µM
Cc1c(CN2CCOCC2)c(CN2CCOCC2)c(C)n1-c1ccc(Cl)cn1 | – | > 200 µM | > 200 µM
c1ccc(CN2CCC3(CC2)SSC2(CCN(Cc4ccccc4)CC2)SS3)cc1 | – | > 100 µM | 64.6 µM
